Key:
Vero cells = assay: cytotoxicity against Vero cell line, MTT method; format: cell-based; conditions: Chlorocebus sabaeus, 72 h, n = 3
Protocol: (§1) The anti-Leishmania major activities of the isolated compounds were evaluated using an MTT assay according to an established protocol. In brief, gradient concentrations of sample solutions in dimethyl sulfoxide (DMSO) and L. major (1 × 10^5 parasite/well) in 100 μL of M199 medium were added to a 96-well plate and then incubated for 72 h at 25 °C. An amount of 100 μL MTT solution was then replaced and incubated overnight. The absorbance of formazan solution in DMSO was measured using a microplate reader at 550 nm. Miltefosine was used as a positive control. The human lung cancer cell line A549 was cultured in 10% FCS-supplemented DMEM. The cytotoxicity assay of isolated compounds was also performed in 96-well plates using the MTT method. Various concentrations of samples in DMSO and A549 (5 × 10^3 cells/well) were cultured in a CO2 incubator for 72 h. The medium was then replaced with 100 μL MTT solution and incubated for 1.5 h in the same condition. The viability was calculated by the absorbance of formazan at 550 nm using a microplate reader. The cytotoxicity assay against the Vero cell line was conducted as in A549, which is mentioned above. Doxorubicin was used as a positive control. The concentration gradient of each activity was essentially set as 100, 50, 25, 12.5, and 6.25 μg/mL (Figures S67–S69).

Leishmania major = assay: anti-Leishmania major activity, MTT assay; format: cell-based; conditions: for IC50: Leishmania major, MTT, 72 h, 25 °C, n = 3, read-out: IC50 L. major; for SI1 (selective index, SI to L. major): by comparing the cytotoxicity to the Vero cells
Protocol: as §1

[1] = test system: human lung cancer cell line A549; assay: cytotoxicity against A549, MTT method; format: cell-based; conditions: for IC50: Homo sapiens, A549, MTT, 72 h, n = 3; for SI2 (selective index, SI to A549): by comparing the cytotoxicity to the Vero cells
Protocol: as §1

L. major = test system: L. major; set-up: method as in PMID 37375252; conditions: isolated from the EtOAc layer; cited from earlier work

| Molecule | IC50 (Leishmania major) | IC50 (Vero cells) | SI1 (selective index, SI to L. major) (Leishmania major) | IC50 [1] | SI2 (selective index, SI to A549) [1] | cytotoxicity against L. major (L. major) |
| --- | --- | --- | --- | --- | --- | --- |
| C=C(C(=O)OC)[C@@H]1[C@@H](OC(=O)/C(C)=C/C)C[C@@]2(C)C(=O)CCC(C)=C2[C@H]1O [Compound 3, Crossostenin C] | 3.75 ± 0.98 µM | 6.2 ± 1.36 µM | – | 5.59 ± 0.72 µM | – | – |
| C=C(C(=O)OC)[C@@H]1[C@@H](OC(=O)/C(C)=C\C)C[C@@]2(C)C(=O)CCC(C)=C2[C@H]1O [Compound 4, Crossostenin D] | 7.66 ± 2.26 µM | 17.2 ± 1.36 µM | – | 17.1 ± 1.86 µM | – | – |
| COc1cccc2c1C(=O)c1c(O)c3c(c(O)c1C2=O)C[C@@](O)(C(=O)CO)C[C@@H]3O[C@H]1C[C@H](N)[C@H](O)[C@H](C)O1 [doxorubicin, reference compound] | – | 3.82 ± 0.79 µM | – | 0.45 ± 0.13 µM | – | – |
| CCCCCCCCCCCCCCCCOP(=O)([O-])OCC[N+](C)(C)C [miltefosine, reference compound] | 18.1 ± 1.69 µM | – | – | – | – | – |
| crossoseamine A | – | – | – | – | – | potent cytotoxicity |
| crossoseamine B | – | – | – | – | – | potent cytotoxicity |

The next lines start with results.

| IC50 (Leishmania major) | Molecule | IC50 (Vero cells) | SI1 (selective index, SI to L. major) (Leishmania major) | IC50 [1] | SI2 (selective index, SI to A549) [1] | cytotoxicity against L. major (L. major) |
| --- | --- | --- | --- | --- | --- | --- |
| 0.81 ± 0.26 µM | C=C1C(=O)O[C@H]2C3=C(C)CCC(=O)[C@]3(C)C[C@H](OC(=O)C=C(C)C)[C@@H]12 [Compound 1, Crossostenin A] | 5.99 ± 0.76 µM | 7.4 | 2.97 ± 0.58 µM | 2.0 | – |
| 0.96 ± 0.17 µM | C=C1C(=O)O[C@H]2C3=C(C)CCC(=O)[C@]3(C)C[C@H](OC(=O)/C(C)=C/C)[C@@H]12 [Compound 2, Crossostenin B] | 7.84 ± 0.61 µM | 8.2 | 2.3 ± 0.26 µM | 3.4 | – |
| 4.72 ± 1.26 µM | CC(=O)OC1CC2(C)C(=O)CCC(C)=C2C2OC(=O)C(CN3CCCC3C(=O)O)C12 (stereo not drawn) [Compound 5, Crossoseamine C] | 11.4 ± 0.98 µM | – | 17.4 ± 1.86 µM | – | – |
| 52.6 ± 11.6 µM | CC1=C2C3OC(=O)C(CN4CCCC4C(=O)O)C3CCC2(C)C(=O)CC1 (stereo not drawn) [Compound 6, Crossoseamine D] | 48.5 ± 4.07 µM | – | 83.9 ± 12.1 µM | – | – |
| 30.8 ± 5.81 µM | CC1=C2C3OC(=O)C(CN4CCCC4C(=O)O)C3C(O)CC2(C)C(=O)CC1 (stereo not drawn) [Compound 7, Crossoseamine E] | 23.8 ± 2.47 µM | – | 58.9 ± 13.6 µM | – | – |

Reference: article PMC10746127, “New ψ-Santonin Derivatives from Crossostephium chinense and Their Anti-Proliferative Activities against Leishmania major and Human Cancer Cells A549” (Molecules, 2023)
